{"source": "paper PMC6748665", "about": "(Journal of Medicinal Chemistry, 2019)", "biological_target": "T1, MtbTrmD (Mycobacterium tuberculosis, UniProt P9WFY7)", "T1 sequence (P9WFY7 1-230)": "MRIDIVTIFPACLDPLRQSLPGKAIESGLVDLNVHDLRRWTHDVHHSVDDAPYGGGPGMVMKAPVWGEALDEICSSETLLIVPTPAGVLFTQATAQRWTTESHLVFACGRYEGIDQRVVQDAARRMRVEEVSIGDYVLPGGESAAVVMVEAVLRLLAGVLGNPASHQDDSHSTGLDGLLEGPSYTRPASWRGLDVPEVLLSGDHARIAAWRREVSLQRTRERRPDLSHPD", "assay": "Surface plasmon resonance", "format": "binding", "settings": "SPR"}
{"smiles": "CCCCCCCCNCc1ccc(CNC(=O)c2csc3nc[nH]c(=O)c23)cc1", "note": "[Compound 15, N-(4-((Octylamino)methyl)benzyl)-4-oxo-3,4-dihydrothieno[2,3-d]pyrimidine-5-carboxamide]", "values": [{"measurement": "lower affinity for MtbTrmD compared to the PaTrmD binding affinity", "result": "over 100 fold"}]}
